35 compounds from ChEMBL document CHEMBL1124199, “Thienylpyrazoloquinolines: potent agonists and inverse agonists to benzodiazepine receptors” (J Med Chem, 1988) can be followed below.

The source made the active and inactive calls. The rule behind the calls is not given here.

The subject of test [1] is Mus musculus. The experiment in a line: Inverse agonist activity of orally administered compound against a subcutaneous dose of 75 mg/kg of PTZ-induced convulsions in mice; Inactive up to 50 mg/kg. In kind it is functional, organism-based.
The target of test [2] is GABA-A receptor; anion channel. The experiment in a line: Binding affinity against benzodiazepine (BZ) receptor by displacing [3H]diazepam in cerebral cortex of Wistar rats. The class given is tissue-based, Rattus norvegicus.
Test [3] relates to Mus musculus. The test is described as follows: Inverse agonist activity of orally administered compound against a subcutaneous dose of 50 mg/kg of PTZ-induced convulsions in mice; expressed as percent of mice affected. In kind it is functional. The note with it: route oral.
The test system of test [4] is Mus musculus. The experiment in a line: Inverse agonist activity of orally administered compound against a subcutaneous dose of 90 mg/kg of PTZ-induced convulsions in mice. The class given is functional. The note with it: route oral.
Test [5] relates to Mus musculus. The experiment in a line: Inverse agonist activity of orally administered compound against a subcutaneous dose of 75 mg/kg of PTZ-induced convulsions in mice. The conditions noted are these: route oral. In kind it is functional.
For test [6], the system named is Mus musculus. The test is described as follows: Agonist activity was evaluated by the inhibition of the pentylenetetrazole (PTZ) induced convulsions after peroral administration. The class given is functional. The note with it: po.
The subject of test [7] is Mus musculus. The test is described as follows: Agonist activity was evaluated by the inhibition of the pentylenetetrazole (PTZ) induced convulsions after peroral administration; Inactive up to 50 mg/kg. The class given is functional, organism-based. Set-up: dose 50 mg/kg.
In test [8] the test system is Mus musculus. The test is described as follows: Inverse agonist activity of orally administered compound against a subcutaneous dose of 90 mg/kg of PTZ-induced convulsions in mice; Inactive. The class given is functional, organism-based. Set-up: dose 90 mg/kg.
The test system of test [9] is Mus musculus. The test is described as follows: Inverse agonist activity of orally administered compound against a subcutaneous dose of 75 mg/kg of PTZ-induced convulsions in mice; inactive up to 50 mg/kg. In kind it is functional, organism-based.
In test [10] the test system is Mus musculus. The experiment in a line: Inverse agonist activity of orally administered compound against a subcutaneous dose of 50 mg/kg of PTZ-induced convulsions in mice. The note with it: route oral. In kind it is functional.
Test [11] has as its system Mus musculus. The experiment in a line: Inverse agonist activity of orally administered compound against a subcutaneous dose of 90 mg/kg of PTZ-induced convulsions in mice; Inactive up to 50 mg/kg. The class given is functional, organism-based.
Test [12] has as its system Mus musculus. The experiment in a line: Agonist activity was evaluated by the inhibition of the pentylenetetrazole (PTZ) induced convulsions after peroral administration at 50 mg/kg. The class given is functional. The note with it: route oral.
Test [13] deals with Mus musculus. The test is described as follows: Inverse agonist activity of orally administered compound against a subcutaneous dose of 90 mg/kg of PTZ-induced convulsions in mice expressed as percent of mice affected. The class given is functional. The conditions noted are these: route oral.
Test [14] concerns Mus musculus. The experiment in a line: Inverse agonist activity of orally administered compound against a subcutaneous dose of 90 mg/kg of PTZ-induced convulsions in mice; inactive. The class given is functional, organism-based. Set-up: dose 90 mg/kg.
The subject of test [15] is Mus musculus. The experiment in a line: Inverse agonist activity of orally administered compound against a subcutaneous dose of 90 mg/kg of PTZ-induced convulsions in mice; inactive up to 50 mg/kg. The class given is functional, organism-based.

What is called ED50 is the midpoint of the dose-response relation. What is called Ki is the equilibrium dissociation constant of an inhibitor or competing ligand from its target. A high value points to lower affinity.

As for `O=C1C2C=Nc3ccccc3C2=NN1c1ccccc1` (centres undefined), in the test with Mus musculus [1], the ED50 entry was “inactive”.

As to `Cc1cc(-n2[nH]c3c(cnc4cc(F)ccc43)c2=O)cs1`, the Ki in test [2] came to 0.64 nM. Further, the Affected animals with Mus musculus [3] was 37.7%. This compound had a 50% effective dose (ED50) in the test with Mus musculus [4] of 6.15 mg/kg.

In test [2], `CCn1cc2c(=O)n(-c3csc(C)c3)nc-2c2ccccc21` displayed a Ki of 436 nM. The median effective dose (ED50) came out at 13.3 mg/kg in the test with Mus musculus [5] and 5.24 mg/kg in the test on Mus musculus [4].

In test [2], `CCc1ccc(-n2[nH]c3c(cnc4ccccc43)c2=O)s1` came in with a Ki of 1.02 nM. This compound also registered an ED50 in the test with Mus musculus [6] of 14.3 mg/kg.

`Cc1ccc2c(c1)ncc1c(=O)n(-c3ccc(C)s3)[nH]c12` had a Ki in test [2] of 2.34 nM. The ED50 entry with Mus musculus [7] and in the test on Mus musculus [8] was “inactive” throughout.

In [2], `Cc1ccc(-n2[nH]c3c(cnc4c(F)cccc43)c2=O)s1` came in with a Ki of 0.92 nM. For the same compound, in the test on Mus musculus [6], the 50% effect level (ED50) was put at a dose of 30.4 mg/kg.

Turning to `Cc1ccc(-n2[nH]c3c(cnc4cc(F)ccc43)c2=O)s1`, in test [2], the Ki was found to be 0.65 nM. The compound further registered an ED50 in the test on Mus musculus [6] of 16.3 mg/kg.

In [2], `Cc1cc(-n2[nH]c3c(cnc4ccccc43)c2=O)c(Cl)s1` had a Ki of 4.69 nM. Also, the ED50 entry in the test with Mus musculus [7], in the test with Mus musculus [9] and in the test on Mus musculus [8] was “inactive” each time.

As for `O=C(O)c1sccc1-n1[nH]c2c(cnc3ccccc32)c1=O`, in [2], affinity was put at a Ki of 17.8 nM. Moreover, the ED50 entry in the test on Mus musculus [7], in the test with Mus musculus [9] and in the test on Mus musculus [8] was “inactive” throughout.

As for `Cc1cc(-n2nc3c4ccccc4n(C)cc-3c2=O)cs1`, in [2], the affinity, expressed as Ki, was 215 nM. In addition, the median effective dose (ED50) amounted to 2.94 mg/kg in the test with Mus musculus [5] and 1.48 mg/kg in the test on Mus musculus [4].

Regarding `CCc1cc(-n2[nH]c3c(cnc4ccccc43)c2=O)cs1`, in [2], the Ki is 0.41 nM. Moreover, the ED50 entry with Mus musculus [9] is “inactive”. This compound returned an ED50 in the test with Mus musculus [4] of 10.3 mg/kg.

Turning to `O=c1c2cnc3ccccc3c2[nH]n1-c1cccs1`, affinity in test [2] was put at a Ki of 0.41 nM. For the same compound, the ED50 entry in the test on Mus musculus [7] was “inactive”. Also, the ED50 with Mus musculus [4] was 9.54 mg/kg. This compound also had an Animals affected in the test on Mus musculus [10] of 50%.

Regarding `Cc1ccc(-n2[nH]c3c(cnc4c(Cl)cccc43)c2=O)s1`, the affinity in test [2] corresponds to a Ki of 0.75 nM. Also, in the test on Mus musculus [11], the ED50 result is “inactive”. In the test with Mus musculus [12], this compound returned an Animals affected of 25%.

`CN1C(=O)CN=C(c2ccccc2)c2cc(Cl)ccc21` [DIAZEPAM]: the ED50 in the test with Mus musculus [6] amounted to 0.67 mg/kg.

The compound `Cc1ccc(-n2[nH]c3c(cnc4cc(Cl)ccc43)c2=O)s1` yielded a Ki in test [2] of 1.05 nM. The ED50 entry in the test with Mus musculus [7] and in the test on Mus musculus [11] was “inactive” each time.

The compound `Cc1cc(-n2[nH]c3c(cnc4c(Cl)cccc43)c2=O)cs1` yielded a Ki in [2] of 0.63 nM. Also, the results for the ED50 in the test on Mus musculus [5] and with Mus musculus [4] were 13.5 mg/kg and 7.7 mg/kg, respectively.

As for `Cc1csc(-n2[nH]c3c(cnc4ccccc43)c2=O)c1`, affinity in test [2] was put at a Ki of 0.48 nM. The ED50 entry in the test on Mus musculus [7] and with Mus musculus [9] was “inactive” throughout. The Affected animals in the test on Mus musculus [13] is listed as 62.5%.

On to `Cc1ccc2c(c1)ncc1c(=O)n(-c3csc(C)c3)[nH]c12`, for which, in test [2], the inhibition constant (Ki) was determined as 0.96 nM. In addition, the ED50 result with Mus musculus [7] and in the test on Mus musculus [8] was “inactive” each time.

`O=c1c2cnc3ccccc3c2[nH]n1-c1csc(Cl)c1` showed a Ki in test [2] of 0.73 nM. Also, the values for the ED50 in the test on Mus musculus [5] and in the test on Mus musculus [4] were 23.2 mg/kg and 11.5 mg/kg, respectively.

On to `Cc1cc(-n2[nH]c3c(cnc4ccccc43)c2=O)sc1C`, for which the affinity in test [2], expressed as Ki, was 0.73 nM. In the test on Mus musculus [6], this compound returned an ED50 of 30.6 mg/kg.

In turn, `Cc1cc(-n2[nH]c3c(cnc4c(F)cccc43)c2=O)cs1` registered a Ki in test [2] of 0.37 nM. The figures for the ED50 with Mus musculus [5] and in the test on Mus musculus [4] were 2.58 mg/kg and 1.32 mg/kg, respectively.

On to `CCCCc1ccc(-n2[nH]c3c(cnc4ccccc43)c2=O)s1`, for which the Ki in test [2] is 1.48 nM. Moreover, in the test with Mus musculus [6], the ED50 was 12.5 mg/kg.

For `O=C1C2C=Nc3ccccc3C2=NN1c1ccc(Cl)cc1` (centres undefined) [CGS-9896], in test [2], the affinity, expressed as Ki, was 0.83 nM. This compound displayed an ED50 with Mus musculus [6] of 1.17 mg/kg.

For the compound `Cc1cc(-n2[nH]c3c(cnc4c(C)cccc43)c2=O)cs1`, the affinity in test [2], expressed as Ki, was 0.38 nM. In addition, the results for the ED50 in the test with Mus musculus [5] and with Mus musculus [4] were 12.9 mg/kg and 5.24 mg/kg, respectively.

In test [2], `Cc1cc(C(=O)O)c(-n2[nH]c3c(cnc4ccccc43)c2=O)s1` gave an inhibition constant Ki of 21.6 nM. In addition, the ED50 entry with Mus musculus [7] and in the test on Mus musculus [11] was “inactive” throughout.

As for `COC(=O)c1sccc1-n1[nH]c2c(cnc3ccccc32)c1=O`, the affinity in test [2] corresponds to a Ki of 142 nM. Moreover, the ED50 entry with Mus musculus [7], in the test on Mus musculus [9] and in the test on Mus musculus [14] was “inactive” throughout.

`O=c1c2cnc3ccccc3c2[nH]n1-c1ccsc1` registered a Ki in test [2] of 0.73 nM. Besides, the 50% effective dose (ED50) with Mus musculus [5] came out at 7.62 mg/kg; in the test on Mus musculus [4], 2.49 mg/kg.

`Cc1cscc1-n1[nH]c2c(cnc3ccccc32)c1=O` gave a Ki in test [2] of 6.86 nM. For the same compound, the 50% effective dose (ED50) came out at 84.4 mg/kg with Mus musculus [5] and 22.3 mg/kg in the test with Mus musculus [4].

Take `Cc1cc(-n2[nH]c3c(cnc4cc(Cl)ccc43)c2=O)cs1`: the Ki in test [2] was determined as 0.78 nM. The ED50 result with Mus musculus [7], in the test on Mus musculus [15] and in the test on Mus musculus [9] was “inactive” each time.

The compound `Cc1ccc(-n2[nH]c3c(cnc4c(C)cccc43)c2=O)s1` returned a Ki in test [2] of 0.83 nM. The same compound gave an ED50 with Mus musculus [6] of 25 mg/kg. Besides, the ED50 entry in the test with Mus musculus [11] is “inactive”.

In turn, `O=c1c2cnc3ccccc3c2[nH]n1-c1ccc(Cl)s1` showed a Ki in [2] of 2.48 nM. Further, the ED50 entry in the test with Mus musculus [7] was “inactive”. This compound gave an Affected animals with Mus musculus [13] of 25%.

`Cc1ccc(-n2nc3c4ccccc4n(C)cc-3c2=O)s1` displayed a Ki in test [2] of 1020 nM. The same compound registered an ED50 in the test with Mus musculus [6] of 13.4 mg/kg.

On to `Cc1cc(-n2[nH]c3c(cnc4ccccc43)c2=O)c(Br)s1`, for which affinity in [2] was put at a Ki of 27.2 nM. Moreover, the ED50 entry in the test on Mus musculus [7], in the test with Mus musculus [15] and in the test on Mus musculus [9] was “inactive” in each case.

`CCOC(=O)c1cc(C)sc1-n1[nH]c2c(cnc3ccccc32)c1=O` displayed a Ki in test [2] of 9.84 nM. The ED50 entry in the test on Mus musculus [7] and in the test on Mus musculus [11] was “inactive” throughout.

The compound `Cc1cc(-n2[nH]c3c(cnc4ccccc43)c2=O)cs1` had an ED50 with Mus musculus [4] of 0.92 mg/kg.
